Results taken from patent publication US11274131B2, “IgM-mediated receptor clustering and cell modulation” (MAYO FOUNDATION FOR MEDICAL EDUCATION AND RESEARCH, priority 2007, dated 2022).

System: matured human monocyte-derived DC
Assay: Antigen uptake assay, matured human DC
Assay type: cell-based
Conditions: inhibitor pretreatment before B7-DC XAb
Protocol: FIGS. 2A to 2G are a series of pictures showing that a kinase activated pathway regulates antibody-induced antigen uptake by matured DC. Matured human monocyte-derived DC were treated with the MTAb B7-DC XAb for varying time periods and evaluated for the phosphorylation status of select signaling pathway intermediates by immunoprecipitation with DAP12 (MC457), Syk (4D10), and PLCγ1 (MC490) reactive antibodies followed by western blot analysis using the phosphotyrosine reactive antibody 4G10 as a probe (FIGS. 2A-2C). Samples of the cells blocked with indicated concentration of piceatannol (FIG. 2D) or with […] of piceatannol (FIG. 2E) were analyzed for phosphorylation of Syk (FIG. 2D) and PLCγ1 (FIG. 2E). To investigate the functional importance of these signaling intermediates in the regulation of antigen uptake by matured DC activated with B7-DC XAb, varying concentrations of pharmacologic inhibitors were used to block the activity of p72Syk (piceatannol) and PLCγ1 (U73122) (FIGS. 2F and 2G, respectively). Antigen uptake was assessed by pulsing cultures with FITC-conjugated ovalbumin and measuring intracellular fluorescence 16 hours later in CD11c positive cells by flow cytometry.
Human DC were generated from peripheral blood CD14^+ monocytes by incubation in GM-CSF and IL-4 for five days. […] All cultures were pulsed with OVA-FITC at the time of treatment with IgM antibodies, and […] OVA-FITC was assessed 24 hours later by flow cytometry.
FIGS. 4A and 4B are a series of plots showing the effects of kinase inhibitors on OVA-FITC uptake by matured human DC, as determined by flow cytometry. […] All cells were pulsed with OVA-FITC at the time of treatment with IgM antibody, and CD11c+ cells were analyzed for OVA-FITC uptake 24 hours later by flow cytometry. […]
Antigen uptake experiments were carried out as described previously (Radhakrishnan et al. (2005) Proc. Natl. Acad. Sci. U.S.A. 102:11438-11443). […] The matured cells were incubated with ovalbumin labeled with FITC or APC and control antibody or B7-DC XAb for two hours, washed and analyzed by FACSCALIBUR™ (Becton Dickinson). […]

CC(C)(C)n1nc(-c2ccc(Cl)cc2)c2c(N)ncnc21 [PP2]
inhibition of B7-DC XAb-induced antigen uptake by matured DC: inhibition of antigen uptake

COc1ccc2c(c1)CC[C@@H]1[C@@H]2CC[C@]2(C)[C@@H](NCCCCCCN3C(=O)C=CC3=O)CC[C@@H]12 [U73122]
inhibition of B7-DC XAb-induced antigen uptake by matured DC: inhibited uptake of tagged proteins by matured DC in a dose responsive manner
